This note sets out measurements from PubChem BioAssay (NCI).

Several values for one entry are separate records, joined by “and”; a condition that tells them apart may be missing. Equal entries are not always repeated.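 Growth conditions: 96-well plates. Treatment: test compound, 48 hours, 5 concentrations. Analysis: linear interpolation between bracketing concentrations; unreached endpoints set to highest concentration. The concentration for 50% growth inhibition is given as GI50. At the TGI there is no net growth.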

In this assay the test system is MDA-MB-468 breast. The experiment in a line: NCI anticancer screen, dose series, 48 h.
For `Cc1nc(NC(=O)N2CCC[C@H]2C(N)=O)sc1-c1ccnc(C(C)(C)C(F)(F)F)c1`, the GI50 was 0.309 µM and 0.596 µM; the TGI is 6.97 µM and > 10 µM. Regarding `COc1ccc(/C=C2\N=C3SC=C(N)N3C2=O)cc1`, the GI50 is 0.291 µM and the TGI stood at 1.66 µM.

Consider `CCNCCNc1cc(-c2ccc(F)cc2)c(C#N)c2nc3ccccc3n12`, for which the GI50 is 1.85 µM and the TGI amounted to 4.12 µM.

`CC#CC(=O)N1CCC[C@H]1c1nc(-c2ccc(C(=O)Nc3ccccn3)cc2)c2c(N)nccn12`: the GI50 was 19 µM and the TGI was greater than 76 µM. Taken in the same sequence, the figures for `CN(C)c1ccc(/C=C/c2ccnc3ccccc23)cc1` were 0.298 µM and 16.9 µM.

Take `Oc1ccccc1-n1c(-c2ccccc2)ccc1-c1ccccc1`: the GI50 was 3.3 µM and the TGI is 15.7 µM. Take `O=C1/C(=C/c2cccs2)CCC/C1=C\c1cccs1`: the GI50 was 0.577 µM and the TGI turned out to be 14.9 µM. For `COc1ccc2c(c1)OC13Oc4cc(OC)ccc4C=C1CCCC3=C2` the same measures were greater than 100 µM and greater than 100 µM. For `O=c1[nH]c(-c2ccc(C(F)(F)F)cc2)nc2c1CSCC2` the same measures were 36.1 µM and greater than 100 µM. For `CC[C@H](C)[C@H](NC(=O)C12C3C4C1C1C2C3C41NC(C)=O)C(=O)N(C)[C@H](C[C@@H](OC(C)=O)c1nc(C(=O)N[C@@H](Cc2ccccc2)C[C@H](C)C(=O)OC)cs1)C(C)C` (some centres not stated) the same measures were 0.081 µM and greater than 3.98 µM. `COc1ccc(/C=C(\C#N)c2cc3ccccc3n2C)cc1`: the GI50 is 0.273 µM and the TGI came to 1.99 µM. Taken in the same sequence, the figures for `CC(C)(C)CC(C)(C)c1ccc(OCCOCCSC(=N)N)cc1` were 1.59 µM and 3.32 µM. For the molecule `COc1ccccc1-n1c(SCc2cc(OC)c(OC)c(OC)c2)nc2ccc(Cl)cc2c1=O`, the GI50 was 0.895 µM and the TGI came to 8.99 µM. With `C[C@@H]1CC[C@@]2(OC1)O[C@H]1C[C@H]3[C@@H]4CC=C5C[C@@H](O[C@@H]6O[C@H](CO)[C@@H](O[C@@H]7O[C@@H](CO)[C@H](O)[C@H]7O)[C@H](O)[C@H]6O[C@@H]6O[C@@H](C)[C@H](O)[C@@H](O)[C@H]6O)CC[C@]5(C)[C@H]4CC[C@]3(C)[C@H]1[C@@H]2C`, the GI50 was 0.361 µM and the TGI is 1.45 µM. Taken in the same sequence, the figures for `COc1ccc(/C=C\c2cc(OC)c(OC)c(OC)c2)c(NS(=O)(=O)c2ccc(C)cc2)c1O` were 0.0261 µM and 0.711 µM.

`CN(Cc1cnc2nc(N)nc(N)c2n1)c1ccc(C(=O)NC(CCC(=O)O)C(=O)O)cc1` (configuration not stated): the GI50 was 0.112 µM and the TGI was greater than 100 µM. For `CC(=O)N1CC(F)(F)c2c(Sc3ncc(N4CCC5(CC4)COC[C@H]5N)nc3N)cccc21` the same measures were 14.8 µM and 50.5 µM. Regarding `O=C(/C=C/c1ccco1)Nc1ncc(Cc2ccc(F)cc2)s1`, the GI50 is 0.142 µM and the TGI was greater than 25.2 µM. For `Fc1ccc(-c2ncn(C3CCNCC3)c2-c2ccnc(Oc3cccc(F)c3)n2)cc1` the same measures were 2.61 µM and 6.82 µM. Taken in the same sequence, the figures for `CCSC1=CC(=O)c2ccccc2C1=O` were 0.18 µM and 0.417 µM.

Regarding `Oc1c(CN2CCCC2)cc(COCc2ccccc2)c2cccnc12`, the GI50 is 2.3 µM and the TGI turned out to be 6.14 µM.

As to `COc1ccc(C(O)c2cc3c(N)c(C(=O)Nc4cccc(Br)c4)sc3nc2C)cc1` (configuration not stated), the GI50 was 0.0969 µM.

As to `C=C1C(C)C2C(Cc3ccccc3)NC(=O)C23C(OC(C)=O)/C=C/C(C)(O)CC(C)C/C=C/C3C1O` (configuration not stated), the GI50 was 0.199 µM and the TGI is greater than 100 µM. As to `Cn1c(=O)c2[nH]c(COc3ccc(C(C)(C)C)cc3)nc2n(C)c1=O`, the GI50 is 8.08 µM and the TGI amounted to 72.3 µM. For `O=C(Nc1cc(Cl)cc(Cl)c1)Nc1ccc2oc(=O)ccc2c1` the same measures were 2.81 µM and 7.45 µM. Taken in the same sequence, the figures for `N#Cc1nc(-c2ccccc2)oc1S(=O)(=O)N1CCOCC1` were 2.21 µM and 6.21 µM.

For the molecule `c1ccc(-c2nc(N3CCNCC3)c3nc(-c4ccccc4)oc3n2)cc1`, the GI50 was 1.93 µM and the TGI was determined as 3.66 µM. Consider `NC(CSC(c1ccccc1)(c1ccccc1)c1ccc2ccccc2c1)C(=O)O` (configuration not stated), for which the GI50 is 0.045 µM and the TGI was 22.3 µM. For `COc1ccc(NC(=O)c2cc(OC)c(OC)c(OC)c2)cc1O` the same measures were 0.861 µM and 15.8 µM. Taken in the same sequence, the figures for `O=Nc1c(O)ccc2ccccc12` were 4.51 µM and 25.3 µM.

Consider `Cn1ccnc1C(=O)/C=C/c1ccc(C(=O)Nc2nc3ccccc3[nH]2)cc1`, for which the GI50 is 1.29 µM and the TGI is greater than 25 µM. Taken in the same sequence, the figures for `O=C(/C=C\c1ccnc2ccccc12)c1ccc([N+](=O)[O-])cc1` were 1.04 µM and 9.09 µM. For `FC(F)(F)c1ccc(-c2cnc(Br)nc2NC2CCCCCC2)cc1` the same measures were 24.9 µM and greater than 100 µM. For `CC/C=C\CCC/C=C1/C(=O)C=C[C@@H]1C/C=C\CCCC(=O)O` the same measures were 4.61 µM and 18.7 µM. `C[Se]C(=O)CC1=C2C=C(F)C=CC2/C(=C\c2ccc(S(C)=O)cc2)C1C` (configuration not stated): the GI50 was 0.134 µM and the TGI came out at 1.41 µM. For `COc1cc(C2C(C#N)=C(N)OC3=C2C(=O)c2ccccc2C3=O)cc(OC)c1OC` (configuration not stated) the same measures were 2.26 µM and 6.64 µM. Taken in the same sequence, the figures for `COC(=O)CCC1=C(C)c2cc3[n-]c(cc4nc(cc5[n-]c(cc1n2)c(CCC(=O)OC)c5C)C=C4C)cc3C.[Cd+2]` were 3.29 µM and 12 µM. Taken in the same sequence, the figures for `C#Cc1ccc(NC(=O)c2ccc(/C=C/C(=O)c3nccn3C)cc2)cc1` were 0.4 µM and 0.918 µM. Take `C#Cc1nc(/C=C\CCCCCCC(=O)NO)cs1`: the GI50 was 1.19 µM and the TGI amounted to 3.12 µM. Taken in the same sequence, the figures for `COc1ccc2c3c(c(OCCCN(C)C)nc2c1)-c1ccc(Cl)cc1C3=O` were 4.7 µM and 19.5 µM. Taken in the same sequence, the figures for `CCCC[C@@H](COC(=O)N(Cc1cccs1)Cc1cccs1)NC(=O)N[C@@H](CC(=O)OC)c1ccc2c(c1)OCO2` were greater than 100 µM and greater than 100 µM.

With `O=C(CCN1CCCC1)Nc1ccc2c(NCCCc3ccccc3)c3ccccc3nc2c1`, the GI50 is 0.477 µM and the TGI was found to be 1.7 µM. Regarding `CCS/C(Nc1ccccc1)=C(\C#N)C(=O)Nc1ccc(OC)cc1`, the GI50 is 1.39 µM and the TGI stood at 7.51 µM. Taken in the same sequence, the figures for `COc1ccc(-c2ccc(-c3ccc(C(=N)N)cn3)s2)cc1Cl` were 1.57 µM and 3.15 µM.
